The numbers were not newly measured in PubChem BioAssay AID1259409 (Chemical Carcinogenesis Research Information System (CCRIS), 2018), which cites them from elsewhere.

For the data set, the system named is rodent chemically induced tumor inhibition, incidence and multiplicity. Description: CCRIS tumor inhibitor studies. The note with it: Route [Inhibitor]: ORAL. The text has this:
The CCRIS database contains chemical records with carcinogenicity, mutagenicity, tumor promotion, and tumor inhibition test results. It was developed by the National Cancer Institute (NCI). Data are derived from studies cited in primary journals, current awareness tools, NCI reports, and other sources. Test results have been reviewed by experts in carcinogenesis and mutagenesis.
CCRIS provides historical information from the years 1985 - 2011. It is no longer updated.
This is an archive assay for CCRIS tumor inhibitor studies.

For `S=C=NCCc1ccccc1`, the “tumour outcome (control, treated, inhibition, significance)” value (Carcinogen: N-NITROSOBIS(2-OXOPROPYL)AMINE [60599-38-4], Dose [Inhibitor]: 3 UMOL IN DIET FOR 49 WK BEGINNING 2 WK POST LAST CARCINOGEN DOSE (STUDY DURATION: 52 WK), Species: HAMSTER, Strain/Sex: SYRIAN/FEMALE, Target Tissue: Type of Lesion: LUNG: ADENOCARCINOMA, Dose [Carcinogen]: 20 MG/KG BW 1X/WK FOR 2 WK (STUDY DURATION: 52 WK), Promoter: NONE) is 14/25 (56.0%), 12/28 (42.9%), 23%, not significant; the “tumour outcome (control, treated, inhibition, significance)” value (Carcinogen: N-NITROSOBIS(2-OXOPROPYL)AMINE [60599-38-4], Dose [Inhibitor]: 3 UMOL IN DIET FOR 49 WK BEGINNING 2 WK POST LAST CARCINOGEN DOSE (STUDY DURATION: 52 WK), Species: HAMSTER, Strain/Sex: SYRIAN/FEMALE, Target Tissue: Type of Lesion: LUNG: ADENOMA, Dose [Carcinogen]: 20 MG/KG BW 1X/WK FOR 2 WK (STUDY DURATION: 52 WK), Promoter: NONE) is listed as 20/25 (88.0%), 26/28 (92.9%), -6%, not significant; the “tumour outcome (control, treated, inhibition, significance)” value (Carcinogen: N-NITROSOBIS(2-OXOPROPYL)AMINE [60599-38-4], Dose [Inhibitor]: 3 UMOL IN DIET FOR 49 WK BEGINNING 2 WK POST LAST CARCINOGEN DOSE (STUDY DURATION: 52 WK), Species: HAMSTER, Strain/Sex: SYRIAN/FEMALE, Target Tissue: Type of Lesion: PANCREAS: ADENOCARCINOMA, Dose [Carcinogen]: 20 MG/KG BW 1X/WK FOR 2 WK (STUDY DURATION: 52 WK), Promoter: NONE) is on record as 20/25 (80.0%), 22/28 (78.6%), 2%, not significant; the “tumour outcome (control, treated, inhibition, significance)” value (Carcinogen: N-NITROSOBIS(2-OXOPROPYL)AMINE [60599-38-4], Dose [Inhibitor]: 6 UMOL IN DIET FOR 49 WK BEGINNING 2 WK POST LAST CARCINOGEN DOSE (STUDY DURATION: 52 WK), Species: HAMSTER, Strain/Sex: SYRIAN/FEMALE, Target Tissue: Type of Lesion: LIVER: HEPATOCELLULAR ADENOMA, Dose [Carcinogen]: 20 MG/KG BW 1X/WK FOR 2 WK (STUDY DURATION: 52 WK), Promoter: NONE) is recorded as 18/25 (72.0%), 16/28 (57.1%), 21%, not significant; the “tumour outcome (control, treated, inhibition, significance)” value (Carcinogen: N-NITROSOBIS(2-OXOPROPYL)AMINE [60599-38-4], Dose [Inhibitor]: 6 UMOL IN DIET FOR 49 WK BEGINNING 2 WK POST LAST CARCINOGEN DOSE (STUDY DURATION: 52 WK), Species: HAMSTER, Strain/Sex: SYRIAN/FEMALE, Target Tissue: Type of Lesion: LUNG: ADENOCARCINOMA, Dose [Carcinogen]: 20 MG/KG BW 1X/WK FOR 2 WK (STUDY DURATION: 52 WK), Promoter: NONE) is 14/25 (56.0%), 11/28 (39.3%), 30%, not significant; the “tumour outcome (control, treated, inhibition, significance)” value (Carcinogen: N-NITROSOBIS(2-OXOPROPYL)AMINE [60599-38-4], Dose [Inhibitor]: 6 UMOL IN DIET FOR 49 WK BEGINNING 2 WK POST LAST CARCINOGEN DOSE (STUDY DURATION: 52 WK), Species: HAMSTER, Strain/Sex: SYRIAN/FEMALE, Target Tissue: Type of Lesion: LUNG: ADENOMA, Dose [Carcinogen]: 20 MG/KG BW 1X/WK FOR 2 WK (STUDY DURATION: 52 WK), Promoter: NONE) was 20/25 (88.0%), 24/28 (85.7%), 3%, not significant. For the same molecule, the “tumour outcome (control, treated, inhibition, significance)” value by setting is: (Carcinogen: N-NITROSOBIS(2-OXOPROPYL)AMINE [60599-38-4], Dose [Inhibitor]: 6 UMOL IN DIET FOR 49 WK BEGINNING 2 WK POST LAST CARCINOGEN DOSE (STUDY DURATION: 52 WK), Species: HAMSTER, Strain/Sex: SYRIAN/FEMALE, Target Tissue: Type of Lesion: PANCREAS: ADENOCARCINOMA, Dose [Carcinogen]: 20 MG/KG BW 1X/WK FOR 2 WK (STUDY DURATION: 52 WK), Promoter: NONE) 20/25 (80.0%), 25/28 (89.3%), -12%, not significant; (Carcinogen: N-NITROSOMETHYLBENZYLAMINE, 937-40-6, Dose [Inhibitor]: 0, 0.325 UMOL/G OF DIET FOR 25 WK BEGINNING 2 WK PRIOR TO CARCINOGEN TREATMENT (STUDY DURATION: 25 WK), Species: RAT, Strain/Sex: F344/MALE, Target Tissue: Type of Lesion: ESOPHAGUS: TUMORS, Dose [Carcinogen]: 0.5 MG/KG 1/WK FOR 15 WK, Promoter: NONE USED) 100%, 100%, 0%, not significant; (Carcinogen: N-NITROSOMETHYLBENZYLAMINE, 937-40-6, Dose [Inhibitor]: 0, 0.4 UMOL/G IN DIET FOR 25 WK BEGINNING 2 WK PRIOR TO CARCINOGEN TREATMENT (STUDY DURATION: 25 WK), Species: RAT, Strain/Sex: F344/MALE, Target Tissue: Type of Lesion: ESOPHAGUS: TUMOR, Dose [Carcinogen]: 0.5 MG/KG BW IN 20% DMSO 1/WK FOR 15 WK, Promoter: NONE USED) 100%, 57%, 43%, not significant; (Carcinogen: N-NITROSOMETHYLBENZYLAMINE, 937-40-6, Dose [Inhibitor]: 0, 0.75 UMOL/G OF DIET FOR 25 WK BEGINNING 2 WK PRIOR TO CARCINOGEN TREATMENT (STUDY DURATION: 25 WK), Species: RAT, Strain/Sex: F344/MALE, Target Tissue: Type of Lesion: ESOPHAGUS: TUMORS, Dose [Carcinogen]: 0.5 MG/KG 1/WK FOR 15 WK, Promoter: NONE USED) 100%, 100%, 0%, not significant; (Carcinogen: N-NITROSOMETHYLBENZYLAMINE, 937-40-6, Dose [Inhibitor]: 0, 1 UMOL/G IN DIET FOR 25 WK BEGINNING 2 WK PRIOR TO CARCINOGEN TREATMENT (STUDY DURATION: 25 WK), Species: RAT, Strain/Sex: F344/MALE, Target Tissue: Type of Lesion: ESOPHAGUS: TUMOR, Dose [Carcinogen]: 0.5 MG/KG BW IN 20% DMSO 1/WK FOR 15 WK, Promoter: NONE USED) 100%, 40%, 60%, p<0.05; (Carcinogen: N-NITROSOMETHYLBENZYLAMINE, 937-40-6, Dose [Inhibitor]: 0, 1.5 UMOL/G OF DIET FOR 25 WK BEGINNING 2 WK PRIOR TO CARCINOGEN TREATMENT (STUDY DURATION: 25 WK), Species: RAT, Strain/Sex: F344/MALE, Target Tissue: Type of Lesion: ESOPHAGUS: TUMORS, Dose [Carcinogen]: 0.5 MG/KG 1/WK FOR 15 WK, Promoter: NONE USED) 100%, 60%, 40%, p<0.01. Moreover, the “tumour outcome (control, treated, inhibition, significance)” value is recorded as 100%, 7%, 93%, p<0.05 (Carcinogen: N-NITROSOMETHYLBENZYLAMINE, 937-40-6, Dose [Inhibitor]: 0, 2.5 UMOL/G IN DIET FOR 25 WK BEGINNING 2 WK PRIOR TO CARCINOGEN TREATMENT (STUDY DURATION: 25 WK), Species: RAT, Strain/Sex: F344/MALE, Target Tissue: Type of Lesion: ESOPHAGUS: TUMOR, Dose [Carcinogen]: 0.5 MG/KG BW IN 20% DMSO 1/WK FOR 15 WK, Promoter: NONE USED); 100%, 0%, 100%, p<0.01 (Carcinogen: N-NITROSOMETHYLBENZYLAMINE, 937-40-6, Dose [Inhibitor]: 0, 3 UMOL/G OF DIET FOR 25 WK BEGINNING 2 WK PRIOR TO CARCINOGEN TREATMENT (STUDY DURATION: 25 WK), Species: RAT, Strain/Sex: F344/MALE, Target Tissue: Type of Lesion: ESOPHAGUS: TUMORS, Dose [Carcinogen]: 0.5 MG/KG 1/WK FOR 15 WK, Promoter: NONE USED); 15/15 (100%), 14/15 (93%), 7%, not significant (Carcinogen: N-NITROSOMETHYLBENZYLAMINE, 937-40-6, Dose [Inhibitor]: 0, 500 PPM IN DIET FOR DURATION OF STUDY BEGINNING 1 WK POST CARCINOGEN TREATMENT (STUDY DURATION: 25 WK), Species: RAT, Strain/Sex: F344/MALE, Target Tissue: Type of Lesion: ESOPHAGUS: TUMOR, Dose [Carcinogen]: 1 MG/KG 3/WK FOR 5 WK, Promoter: NONE USED); 15/15 (100%), 7/15 (47%), 53%, p<0.01 (Carcinogen: N-NITROSOMETHYLBENZYLAMINE, 937-40-6, Dose [Inhibitor]: 0, 500 PPM IN DIET FOR DURATION OF STUDY BEGINNING 2 WK PRIOR TO CARCINOGEN TREATMENT (STUDY DURATION: 25 WK), Species: RAT, Strain/Sex: F344/MALE, Target Tissue: Type of Lesion: ESOPHAGUS: TUMOR, Dose [Carcinogen]: 1 MG/KG 3/WK FOR 5 WK, Promoter: NONE USED).
